Data taken from patent US7442776B2, “Cancerous disease modifying antibodies” (priority 1999, dated 2008).

What was measured:
Design in all cases: key to the marks not given beside the values
Settings in all cases: purified antibody or control, 5 days incubation, calcein; four experiments in triplicate
[1] = system: MCF-7 breast cancer cell line
[2] = system: SW1116 colon cancer cell line
[3] = system: PC-3 prostate cancer cell line
[4] = system: CCD-27sk non-cancer cell line
[5] = system: Hs888.Lu non-cancer cell line
[6] = system: MDA-MB-231 (MB-231) breast cancer cell line; assay: Live/Dead cytotoxicity assay
[7] = system: MDA-MB-468 (MB-468) breast cancer cell line; assay: Live/Dead cytotoxicity assay
[8] = system: HT-29 colon cancer cell line; assay: Live/Dead cytotoxicity assay
[9] = system: SW620 colon cancer cell line; assay: Live/Dead cytotoxicity assay
[10] = system: NCI-H460 lung cancer cell line; assay: Live/Dead cytotoxicity assay
[11] = system: OVCAR-3 ovarian cancer cell line; assay: Live/Dead cytotoxicity assay

Structure (SMILES) | In Vitro Cytotoxicity, MCF-7 [1] | In Vitro Cytotoxicity, SW1116 [2] | In Vitro Cytotoxicity, PC-3 [3] | In Vitro Cytotoxicity, CCD 27sk [4] | In Vitro Cytotoxicity, Hs888 Lu [5] | In Vitro Cytotoxicity, MB-231 [6] | In Vitro Cytotoxicity, MB-468 [7] | In Vitro Cytotoxicity, HT-29 [8] | In Vitro Cytotoxicity, SW620 [9] | In Vitro Cytotoxicity, NCI H460 [10] | In Vitro Cytotoxicity, OVCAR [11]
C[C@@H]1C[C@@H]([C@H](O)CC2CC(=O)NC(=O)C2)C(=O)[C@@H](C)C1 [CHX, Cycloheximide] | +++ | +++ | +++ | +++ | +++ | ++ | +++ | +++ | ++ | ++ | +++
[N-]=[N+]=[N-].[Na+] [NaN3] | +++ | ++ | +++ | – | – | +++ | +++ | +++ | – | +++ | +++
